{"source": "PubChem BioAssay (NCI)", "assay_in_all_cases": "inhibition of tumour cell growth, NCI panel, 384-well format", "key": {"[1]": {"system": "HOP-92 NSCLC"}, "[2]": {"system": "SF-295 CNS"}, "[3]": {"system": "MALME-3M melanoma"}, "[4]": {"system": "NCI-H23 lung"}, "[5]": {"system": "BT-549 breast"}, "[6]": {"system": "RXF 393 renal"}, "[7]": {"system": "COLO 205 colon"}, "[8]": {"system": "OVCAR-8 ovarian"}, "[9]": {"system": "SNB-75 CNS"}, "[10]": {"system": "SR leukemia"}, "[11]": {"system": "MCF7 breast"}, "[12]": {"system": "CAKI-1 renal"}, "[13]": {"system": "HS 578T breast"}, "[14]": {"system": "M14 melanoma"}, "[15]": {"system": "SW-620 colon"}, "[16]": {"system": "A549 NSCLC"}, "[17]": {"system": "NCI-H322M lung"}, "[18]": {"system": "MDA-MB-231 breast"}, "[19]": {"system": "RPMI-8226 leukemia"}, "[20]": {"system": "SK-MEL-28 melanoma"}, "[21]": {"system": "HOP-62 NSCLC"}, "[22]": {"system": "SF-268 CNS"}, "[23]": {"system": "KM12 colon"}, "[24]": {"system": "NCI-H226 lung"}, "[25]": {"system": "HL-60(TB) leukemia"}, "[26]": {"system": "HT29 colon"}, "[27]": {"system": "SF-539 CNS"}}, "note": "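The concentration for 50% growth inhibition is given as GI50. TGI denotes the concentration required for complete inhibition of growth.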"}
{"smiles": "Cc1cc(Nc2ncc(F)c(N[C@H]3[C@@H](C(N)=O)[C@@H]4C=C[C@H]3C4)n2)ccc1N1CCN(C)CC1", "values": [{"measurement": "GI50", "setting": "[1]", "result": 15.6, "unit": "nM"}, {"measurement": "TGI", "setting": "[1]", "result": 184, "unit": "nM"}, {"measurement": "GI50", "setting": "[2]", "result": 21.8, "unit": "nM"}, {"measurement": "TGI", "setting": "[2]", "result": 276, "unit": "nM"}, {"measurement": "GI50", "setting": "[3]", "result": "< 10", "unit": "nM"}, {"measurement": "TGI", "setting": "[3]", "result": 1340, "unit": "nM"}, {"measurement": "GI50", "setting": "[4]", "result": 35.9, "unit": "nM"}, {"measurement": "TGI", "setting": "[4]", "result": 1160, "unit": "nM"}, {"measurement": "GI50", "setting": "[5]", "result": 14.6, "unit": "nM"}, {"measurement": "TGI", "setting": "[5]", "result": 51.5, "unit": "nM"}, {"measurement": "GI50", "setting": "[6]", "result": 30.5, "unit": "nM"}, {"measurement": "TGI", "setting": "[6]", "result": 294, "unit": "nM"}, {"measurement": "GI50", "setting": "[7]", "result": "< 10", "unit": "nM"}, {"measurement": "TGI", "setting": "[7]", "result": "< 10", "unit": "nM"}, {"measurement": "GI50", "setting": "[8]", "result": 88, "unit": "nM"}, {"measurement": "TGI", "setting": "[8]", "result": 385, "unit": "nM"}, {"measurement": "GI50", "setting": "[9]", "result": 15.2, "unit": "nM"}, {"measurement": "TGI", "setting": "[9]", "result": 119, "unit": "nM"}, {"measurement": "GI50", "setting": "[10]", "result": "< 10", "unit": "nM"}, {"measurement": "TGI", "setting": "[10]", "result": "< 10", "unit": "nM"}, {"measurement": "GI50", "setting": "[11]", "result": 436, "unit": "nM"}, {"measurement": "TGI", "setting": "[11]", "result": 2140, "unit": "nM"}, {"measurement": "GI50", "setting": "[12]", "result": "< 10", "unit": "nM"}, {"measurement": "TGI", "setting": "[12]", "result": 1200, "unit": "nM"}, {"measurement": "GI50", "setting": "[13]", "result": 12.6, "unit": "nM"}, {"measurement": "TGI", "setting": "[13]", "result": 95.6, "unit": "nM"}, {"measurement": "GI50", "setting": "[14]", "result": "< 10", "unit": "nM"}, {"measurement": "TGI", "setting": "[14]", "result": 2100, "unit": "nM"}, {"measurement": "GI50", "setting": "[15]", "result": 26.2, "unit": "nM"}, {"measurement": "TGI", "setting": "[15]", "result": 1500, "unit": "nM"}, {"measurement": "GI50", "setting": "[16]", "result": 20.1, "unit": "nM"}, {"measurement": "TGI", "setting": "[16]", "result": 3250, "unit": "nM"}, {"measurement": "GI50", "setting": "[17]", "result": 766, "unit": "nM"}, {"measurement": "TGI", "setting": "[17]", "result": 2260, "unit": "nM"}, {"measurement": "GI50", "setting": "[18]", "result": 26, "unit": "nM"}, {"measurement": "TGI", "setting": "[18]", "result": 1570, "unit": "nM"}, {"measurement": "GI50", "setting": "[19]", "result": "< 10", "unit": "nM"}, {"measurement": "TGI", "setting": "[19]", "result": "< 10", "unit": "nM"}, {"measurement": "GI50", "setting": "[20]", "result": 1210, "unit": "nM"}, {"measurement": "TGI", "setting": "[20]", "result": 2550, "unit": "nM"}, {"measurement": "GI50", "setting": "[21]", "result": 25, "unit": "nM"}, {"measurement": "TGI", "setting": "[21]", "result": 237, "unit": "nM"}, {"measurement": "GI50", "setting": "[22]", "result": 73.5, "unit": "nM"}, {"measurement": "TGI", "setting": "[22]", "result": 866, "unit": "nM"}, {"measurement": "GI50", "setting": "[23]", "result": 173, "unit": "nM"}, {"measurement": "TGI", "setting": "[23]", "result": 1500, "unit": "nM"}, {"measurement": "GI50", "setting": "[24]", "result": 25.7, "unit": "nM"}, {"measurement": "TGI", "setting": "[24]", "result": 661, "unit": "nM"}, {"measurement": "GI50", "setting": "[25]", "result": "< 10", "unit": "nM"}, {"measurement": "TGI", "setting": "[25]", "result": 1030, "unit": "nM"}, {"measurement": "GI50", "setting": "[26]", "result": 44.4, "unit": "nM"}, {"measurement": "TGI", "setting": "[26]", "result": 1140, "unit": "nM"}, {"measurement": "GI50", "setting": "[27]", "result": 24.8, "unit": "nM"}, {"measurement": "TGI", "setting": "[27]", "result": 138, "unit": "nM"}]}
